Measurements from the supplement of paper PMC11061612.

Key:
AZD7648 = compound: Cc1cc2ncnn2cc1Nc1ncc2c(n1)n(C1CCOCC1)c(=O)n2C [AZD7648]; conditions: max 10 µM
Procedure, shortened: (§1)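 Cancer cell lines were plated in 1536-well plates in 7.5 μl of DMEM/F12 or RPMI with 10% FBS and kept 24 hours at 37°C and 5% CO2 before 72 hours of dosing, with final DMSO typically 0.2%. CellTiter-Glo 2.0 luminescence measured viability, scaled between blank-well and DMSO-well means. Dose responses were fitted to a two-parameter logistic curve with a non-linear mixed effects model. This fit gives the single-agent IC50.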

Venetoclax = compound: CC1(C)CCC(CN2CCN(c3ccc(C(=O)NS(=O)(=O)c4ccc(NCC5CCOCC5)c([N+](=O)[O-])c4)c(Oc4cnc5[nH]ccc5c4)c3)CC2)=C(c2ccc(Cl)cc2)C1 [Venetoclax]; conditions: max 1 µM
Procedure, shortened: as §1

Alisertib = compound: COc1cc(Nc2ncc3c(n2)-c2ccc(Cl)cc2C(c2c(F)cccc2OC)=NC3)ccc1C(=O)O [Alisertib]; conditions: max 10 µM
Procedure, shortened: as §1

Prexasertib = compound: COc1cccc(OCCCN)c1-c1cc(Nc2cnc(C#N)cn2)n[nH]1 [Prexasertib]; conditions: max 1 µM
Procedure, shortened: as §1

AZD2811 = compound: CCN(CCO)CCCOc1ccc2c(Nc3cc(CC(=O)Nc4cccc(F)c4)[nH]n3)ncnc2c1 [AZD2811]; conditions: max 1 µM
Procedure, shortened: as §1

AZD6738 = compound: C[C@@H]1COCCN1C2=NC(=NC(=C2)C3(CC3)[S@](=N)(=O)C)C4=C5C=CNC5=NC=C4 [AZD6738]; conditions: max 10 µM
Procedure, shortened: as §1

MK-2206 = compound: NC1(c2ccc(-c3nc4ccn5c(=O)[nH]nc5c4cc3-c3ccccc3)cc2)CCC1 [MK-2206]; conditions: max 10 µM
Procedure, shortened: as §1

AZD1775 = compound: C=CCn1c(=O)c2cnc(Nc3ccc(N4CCN(C)CC4)cc3)nc2n1-c1cccc(C(C)(C)O)n1 [AZD1775]; conditions: max 3 µM
Procedure, shortened: as §1

Gefitinib = compound: COc1cc2ncnc(Nc3ccc(F)c(Cl)c3)c2cc1OCCCN1CCOCC1 [Gefitinib]; conditions: max 10 µM
Procedure, shortened: as §1

5-Fluorouracil = compound: O=c1[nH]cc(F)c(=O)[nH]1 [5-Fluorouracil]; conditions: max 20 µM
Procedure, shortened: as §1

Dasatinib = compound: CC1=C(C(=CC=C1)Cl)NC(=O)C2=CN=C(S2)NC3=CC(=NC(=N3)C)N4CCN(CC4)CCO [Dasatinib]; conditions: max 2 µM
Procedure, shortened: as §1

Gemcitabine = compound: Nc1ccn([C@@H]2O[C@H](CO)[C@@H](O)C2(F)F)c(=O)n1 [Gemcitabine]; conditions: max 0.3 µM
Procedure, shortened: as §1

Trametinib = compound: CC(=O)Nc1cccc(-n2c(=O)n(C3CC3)c(=O)c3c(Nc4ccc(I)cc4F)n(C)c(=O)c(C)c32)c1 [Trametinib]; conditions: max 1 µM
Procedure, shortened: as §1

Crizotinib = compound: C[C@@H](Oc1cc(-c2cnn(C3CCNCC3)c2)cnc1N)c1c(Cl)ccc(F)c1Cl [Crizotinib]; conditions: max 10 µM
Procedure, shortened: as §1

AZD4320 = compound: CN(CC[C@H](CSC1=CC=CC=C1)NC2=C(C=C(C=C2)S(=O)(=O)NC(=O)C3=CC=C(C=C3)N4CCC(CC4)[C@H](C5=CC=CC=C5C6=CC=C(C=C6)Cl)O)S(=O)(=O)C(F)(F)F)CCO [AZD4320]; conditions: max 1 µM
Procedure, shortened: as §1

SG3199 = compound: CC1=CN2[C@@H](C1)C=NC3=CC(=C(C=C3C2=O)OC)OCCCCCOC4=C(C=C5C(=C4)N=C[C@@H]6CC(=CN6C5=O)C)OC [SG3199]; conditions: max 0.001 µM
Procedure, shortened: as §1

Palbociclib = compound: CC(=O)c1c(C)c2cnc(Nc3ccc(N4CCNCC4)cn3)nc2n(C2CCCC2)c1=O [Palbociclib]; conditions: max 10 µM
Procedure, shortened: as §1

AZD1390 = compound: CC(C)n1c(=O)n(C)c2cnc3cc(F)c(-c4ccc(OCCCN5CCCCC5)nc4)cc3c21 [AZD1390]; conditions: max 0.3 µM
Procedure, shortened: as §1

[1] = compound: O=C(Nc1ccc2[nH]nc(-c3ccncc3)c2c1)[C@@H]1CCN(CC(=O)N2CCN(c3ccc(-c4ncccn4)cc3)CC2)C1; conditions: max 5 µM
Procedure, shortened: as §1

SN-38 = compound: CCc1c2c(nc3ccc(O)cc13)-c1cc3c(c(=O)n1C2)COC(=O)[C@]3(O)CC [SN-38]; conditions: max 0.3 µM
Procedure, shortened: as §1

Etoposide = compound: COc1cc([C@@H]2c3cc4c(cc3[C@@H](O[C@@H]3O[C@@H]5CO[C@@H](C)O[C@H]5[C@H](O)[C@H]3O)[C@H]3COC(=O)[C@H]23)OCO4)cc(OC)c1O [Etoposide]; conditions: max 10 µM
Procedure, shortened: as §1

Paclitaxel = compound: CC(=O)O[C@H]1C(=O)[C@@]2(C)[C@H]([C@H](OC(=O)c3ccccc3)[C@]3(O)C[C@H](OC(=O)[C@H](O)[C@@H](NC(=O)c4ccccc4)c4ccccc4)C(C)=C1C3(C)C)[C@]1(OC(C)=O)CO[C@@H]1C[C@@H]2O [Paclitaxel]; conditions: max 3 µM
Procedure, shortened: as §1

AZD0156 = compound: CN(C)CCCOc1ccc(-c2ccc3ncc4c(c3c2)n(C2CCOCC2)c(=O)n4C)cn1 [AZD0156]; conditions: max 3 µM
Procedure, shortened: as §1

Selumetinib = compound: Cn1cnc2c(F)c(Nc3ccc(Br)cc3Cl)c(C(=O)NOCCO)cc21 [Selumetinib]; conditions: max 10 µM
Procedure, shortened: as §1

AZD8186 = compound: C[C@@H](Nc1cc(F)cc(F)c1)c1cc(C(=O)N(C)C)cc2c(=O)cc(N3CCOCC3)oc12 [AZD8186]; conditions: max 10 µM
Procedure, shortened: as §1

Doxorubicin = compound: COc1cccc2c1C(=O)c1c(O)c3c(c(O)c1C2=O)C[C@@](O)(C(=O)CO)C[C@@H]3O[C@H]1C[C@H](N)[C@H](O)[C@H](C)O1 [Doxorubicin]; conditions: max 1 µM
Procedure, shortened: as §1

Olaparib = compound: O=C(c1cc(Cc2n[nH]c(=O)c3ccccc23)ccc1F)N1CCN(C(=O)C2CC2)CC1 [Olaparib]; conditions: max 10 µM
Procedure, shortened: as §1

Carboplatin = compound: C1CC(C1)(C(=O)[O-])C(=O)[O-].N.N.[Pt+2] [Carboplatin]; conditions: max 10 µM
Procedure, shortened: as §1

Savolitinib = compound: C[C@@H](c1ccc2nccn2c1)n1nnc2ncc(-c3cnn(C)c3)nc21 [Savolitinib]; conditions: max 1 µM
Procedure, shortened: as §1

Lapatinib = compound: CS(=O)(=O)CCNCc1ccc(-c2ccc3ncnc(Nc4ccc(OCc5cccc(F)c5)c(Cl)c4)c3c2)o1 [Lapatinib]; conditions: max 10 µM
Procedure, shortened: as §1

AZD5153 = compound: COc1nnc2ccc(N3CCC(c4ccc(OCCN5CCN(C)C(=O)[C@H]5C)cc4)CC3)nn12 [AZD5153]; conditions: max 1 µM
Procedure, shortened: as §1

AZD5363 = compound: C1CN(CCC1(C(=O)N[C@@H](CCO)C2=CC=C(C=C2)Cl)N)C3=NC=NC4=C3C=CN4 [AZD5363]; conditions: max 10 µM
Procedure, shortened: as §1

AZD5991 = compound: Cc1c2c(nn1C)CSCc1cc(n(C)n1)CSc1cc(c3ccccc3c1)OCCCc1c(C(=O)O)n(C)c3c-2c(Cl)ccc13 [AZD5991]; conditions: max 1 µM
Procedure, shortened: as §1

Taselisib = compound: Cc1nc(-c2cn3c(n2)-c2ccc(-c4cnn(C(C)(C)C(N)=O)c4)cc2OCC3)n(C(C)C)n1 [Taselisib]; conditions: max 10 µM
Procedure, shortened: as §1

SRA737 = compound: N#Cc1cnc(Nc2cc(NC[C@H]3CNCCO3)c(C(F)(F)F)cn2)cn1 [SRA737]; conditions: max 10 µM
Procedure, shortened: as §1

Cell Line	IC50, cell viability 72 h (AZD7648)	IC50, cell viability 72 h (Venetoclax)	IC50, cell viability 72 h (Alisertib)	IC50, cell viability 72 h (Prexasertib)	IC50, cell viability 72 h (AZD2811)	IC50, cell viability 72 h (AZD6738)	IC50, cell viability 72 h (MK-2206)	IC50, cell viability 72 h (AZD1775)	IC50, cell viability 72 h (Gefitinib)	IC50, cell viability 72 h (5-Fluorouracil)	IC50, cell viability 72 h (Dasatinib)	IC50, cell viability 72 h (Gemcitabine)	IC50, cell viability 72 h (Trametinib)	IC50, cell viability 72 h (Crizotinib)	IC50, cell viability 72 h (AZD4320)	IC50, cell viability 72 h (SG3199)	IC50, cell viability 72 h (Palbociclib)	IC50, cell viability 72 h (AZD1390)	IC50, cell viability 72 h [1]	IC50, cell viability 72 h (SN-38)	IC50, cell viability 72 h (Etoposide)	IC50, cell viability 72 h (Paclitaxel)	IC50, cell viability 72 h (AZD0156)	IC50, cell viability 72 h (Selumetinib)	IC50, cell viability 72 h (AZD8186)	IC50, cell viability 72 h (Doxorubicin)	IC50, cell viability 72 h (Olaparib)	IC50, cell viability 72 h (Carboplatin)	IC50, cell viability 72 h (Savolitinib)	IC50, cell viability 72 h (Lapatinib)	IC50, cell viability 72 h (AZD5153)	IC50, cell viability 72 h (AZD5363)	IC50, cell viability 72 h (AZD5991)	IC50, cell viability 72 h (Taselisib)	IC50, cell viability 72 h (SRA737)
SK-UT-1 (Other Solid Carcinomas)	> 10 µM	> 1 µM	> 10 µM	0.0216 µM	> 1 µM	4.17 µM	> 10 µM	1.1 µM	> 10 µM	> 20 µM	> 2 µM	0.00912 µM	> 1 µM	> 10 µM	> 1 µM	> 0.001 µM	> 10 µM	> 0.3 µM	> 5 µM	0.0227 µM	3.4 µM	0.0282 µM	> 3 µM	> 10 µM	> 10 µM	0.971 µM	> 10 µM	> 10 µM	> 1 µM	> 10 µM	0.694 µM	> 10 µM	> 1 µM	8.85 µM	3.42 µM
SLVL (B-Cell Non-Hodgkin's Lymphoma)	> 10 µM	> 1 µM	0.148 µM	0.0199 µM	0.195 µM	3.76 µM	> 10 µM	0.836 µM	> 10 µM	1.56 µM	1.81 µM	0.0151 µM	0.402 µM	7.08 µM	0.428 µM	> 0.001 µM	> 10 µM	> 0.3 µM	> 5 µM	0.00235 µM	0.85 µM	0.00606 µM	> 3 µM	9.51 µM	> 10 µM	0.0768 µM	> 10 µM	> 10 µM	> 1 µM	> 10 µM	0.101 µM	4.58 µM	> 1 µM	5.56 µM	2.52 µM
EW-22 (Ewing's Sarcoma)	> 10 µM	0.72 µM	0.563 µM	0.00762 µM	0.0788 µM	1.4 µM	> 10 µM	0.694 µM	> 10 µM	> 20 µM	> 2 µM	0.00606 µM	> 1 µM	3.93 µM	0.178 µM	> 0.001 µM	> 10 µM	> 0.3 µM	> 5 µM	0.00131 µM	1.15 µM	0.0192 µM	> 3 µM	> 10 µM	> 10 µM	0.0648 µM	1.73 µM	> 10 µM	> 1 µM	> 10 µM	0.982 µM	> 10 µM	> 1 µM	0.936 µM	3.01 µM
D-392MG (Glioblastoma)	> 10 µM	> 1 µM	> 10 µM	0.775 µM	> 1 µM	> 10 µM	> 10 µM	> 3 µM	> 10 µM	> 20 µM	> 2 µM	> 0.3 µM	> 1 µM	> 10 µM	> 1 µM	> 0.001 µM	> 10 µM	> 0.3 µM	> 5 µM	> 0.3 µM	> 10 µM	0.245 µM	> 3 µM	> 10 µM	> 10 µM	> 1 µM	> 10 µM	> 10 µM	> 1 µM	> 10 µM	> 1 µM	> 10 µM	> 1 µM	> 10 µM	> 10 µM
D-283MED (Other Solid Carcinomas)	> 10 µM	> 1 µM	0.547 µM	0.011 µM	0.45 µM	0.302 µM	> 10 µM	0.425 µM	> 10 µM	7.43 µM	> 2 µM	0.00345 µM	> 1 µM	2.73 µM	0.425 µM	> 0.001 µM	> 10 µM	> 0.3 µM	> 5 µM	0.0073 µM	0.583 µM	< 0.003 µM	> 3 µM	> 10 µM	8.4 µM	0.2 µM	> 10 µM	> 10 µM	> 1 µM	6.25 µM	0.0608 µM	8.85 µM	> 1 µM	3.99 µM	0.869 µM
TC-YIK (Other Solid Carcinomas)	> 10 µM	> 1 µM			0.0219 µM	1.93 µM	> 10 µM	0.576 µM	> 10 µM	> 20 µM	> 2 µM	0.0313 µM	0.156 µM	2.5 µM	0.057 µM		> 10 µM	> 0.3 µM	2.73 µM	0.00186 µM	1.64 µM	0.00402 µM	> 3 µM	7.13 µM	> 10 µM		> 10 µM	> 10 µM	> 1 µM	> 10 µM	0.0202 µM	> 10 µM	> 1 µM	> 10 µM	4.37 µM
